Three compounds from patent US10065967B2, “Compounds that are ERK inhibitors” (Merck Sharp & Dohme Corp., priority 2013, dated 2018) can be followed below.

pIC50: −log10 of the molar value.

Chain of Active Mouse ERK2 (mERK2) (P63085 whole entry): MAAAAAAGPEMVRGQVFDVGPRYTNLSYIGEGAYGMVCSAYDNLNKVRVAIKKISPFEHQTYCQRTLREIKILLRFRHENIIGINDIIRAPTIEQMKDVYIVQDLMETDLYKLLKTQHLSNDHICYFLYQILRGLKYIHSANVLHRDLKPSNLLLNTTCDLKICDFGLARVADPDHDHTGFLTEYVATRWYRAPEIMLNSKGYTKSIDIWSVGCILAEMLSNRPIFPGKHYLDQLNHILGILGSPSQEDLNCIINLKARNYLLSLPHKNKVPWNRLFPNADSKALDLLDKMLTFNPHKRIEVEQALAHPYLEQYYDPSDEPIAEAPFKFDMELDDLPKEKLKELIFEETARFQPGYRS

This assay has as its target Active Mouse ERK2 (mERK2) (Mus musculus (Mouse), UniProt P63085). Kind of assay: Active Mouse ERK2 (mERK2) Activity Assay (IMAP-FP). The format is biochemical. To be noted: phosphorylated active mERK2 0.19 nM, 30 uM ATP, 10 point titration, read-out: ERK 2 MAPK1 Mouse IC50. Here is the method:
Active Mouse ERK2 (mERK2) Activity Assay:
Activated ERK2 activity was determined in an IMAP-FP assay (Molecular Devices). Using this assay format, the potency (IC50) of each compound was determined from a 10 point (1:3 serial dilution, 3 μM starting compound concentration) titration curve using the following outlined procedure. To each well of a black Corning 384-well plate (Corning Catalog #3575), 7.5 nL of compound (3333 fold dilution in final assay volume of 25 μL) was dispensed, followed by the addition of 15 μL of kinase buffer (tween containing kinase buffer, Molecular Devices) containing […] (0.316 nM) of phosphorylated active mERK2 enzyme. Following a 15 minute compound & enzyme incubation, each reaction was initiated by the addition of 10 μL kinase buffer containing 2.45 μM ERK2 IMAP substrate peptides (2.25 μM-unlabeled peptide and 200 nM-labeled peptide, and 75 μM ATP. The final reaction in each well of 25 μL consists of 0.19 nM mERK2, 900 nM unlabeled peptide, 80 nM labeled-peptide, and 30 uM ATP. Phosphorylation reactions were allowed to proceed for 45 minutes and were immediately quenched by the addition of 60 μL IMAP detection beads (1:1000 dilutions) in IMAP binding buffer (Molecular Devices) with 24 mM NaCl. Plates were read on EnVision reader after 60 minutes binding equilibration using Fluorescence Polarization protocol (Perkin Elmer).
For the compound `Cc1cc(-c2n[nH]c3cc4[nH]c(=O)ccc4cc23)ccn1` [Example 1, 3-(2-methylpyridin-4-yl)-1,8-dihydro-7H-pyrazolo[4,3-g]quinolin-7-one], the pIC50 is 9.40. Consider `Cc1cc(-c2n[nH]c3cc4[nH]c(=O)c(Br)cc4cc23)ccn1` [Example 2, 6-bromo-3-(2-methylpyridin-4-yl)-1,8-dihydro-7H-pyrazolo[4,3-g]quinolin-7-one], for which the negative-log IC50 (pIC50) was 9.70. Consider `Cc1cc(-c2n[nH]c3cc4[nH]c(=O)c(Cc5ccccc5)cc4cc23)ccn1` [Example 3, 6-benzyl-3-(2-methylpyridin-4-yl)-1,8-dihydro-7H-pyrazolo[4,3-g]quinolin-7-one], for which the negative-log IC50 (pIC50) is 9.70.

By pIC50 is commonly meant the IC50 on a negative log10 scale, so that one unit is a factor of ten.
